Measurements as given in the Kinase Knowledgebase extract (Sharma et al. 2016).

The molecules below were run against MAPK14;MAPK11;MAPK12 (human) (UniProt Q16539) (assay: Inhibition of p38 Kinase Activity).

SMILES	IC50
CC1(C)C2CCC(CNc3nc(N)nc(Nc4ccc(S(=O)(=O)N(C=O)c5ncccn5)cc4)n3)C1C2 (stereo not given)	< 10 µM
Cc1ccc(C(=O)O)cc1Nc1nc(N[C@H]2CCNC2)nc(N(C)CC(C)(C)C)n1	< 1 µM
CONC(=O)c1ccc(C)c(Nc2nc(N(C)CC(C)(C)C)nc(N3CCCN(C)CC3)n2)c1	< 1 µM
CNc1nc(Nc2cc(C(N)=O)ccc2C)nc(N[C@H]2CCNC2)n1	< 1 µM
Cc1ccc(C(=O)Nc2ccccn2)cc1Nc1nc(N[C@H]2CCNC2)nc(N(C)CC(C)(C)C)n1	< 1 µM
Clc1nc(Nc2ccc3ncsc3c2)nc(N2CCCC(c3ccccc3)C2)n1 (stereo not given)	< 10 µM
CONC(=O)c1ccc(C)c(Nc2nc(N(C)CC(C)(C)C)nc(N3CCN(C)CC3)n2)c1	< 1 µM
CC(CNc1nc(Nc2ccc3ncsc3c2)nc(N(C)C)n1)c1ccc(Cl)cc1 (stereo not given)	< 10 µM
Cc1ccc(C(N)=O)cc1Nc1nc(NC[C@@H]2CC[C@H]3C[C@@H]2C3(C)C)nc(N[C@@H]2CCNC2)n1	< 1 µM
Cc1ccc(C(=O)NC2CCCCC2)cc1Nc1nc(N[C@H]2CCNC2)nc(N(C)CC(C)(C)C)n1	< 1 µM
CCNC(=O)N(C)CCCN(C)c1nc(NCC(C)c2ccccc2)nc(Nc2ccc3ncsc3c2)n1 (stereo not given)	< 10 µM
Cc1ccc(C(N)=O)cc1Nc1nc(N[C@H]2CCN(c3ccccc3N)C2)nc(N(C)CC(C)(C)C)n1	< 1 µM
CCCCNc1nc(Nc2cc(C(=O)NOC)ccc2C)nc(N(C)CC(C)(C)C)n1	< 1 µM
CNc1nc(NCC(C)c2ccccc2)nc(Nc2ccc3ncsc3c2)n1 (stereo not given)	< 10 µM
CCOC(=O)N1CCC(N(C)c2nc(Nc3cc(C(N)=O)ccc3C)nc(N(C)CC(C)C)n2)C1 (stereo not given)	< 1 µM
Cc1ccc(C(=O)Nc2cccc(N(C)C)c2)cc1Nc1nc(N[C@H]2CCNC2)nc(N(C)CC(C)(C)C)n1	< 1 µM
CC(CNc1nc(Nc2ccc3ncsc3c2)nc(N2CCN(C(=S)NC3CCCCC3)CC2)n1)c1ccccc1 (stereo not given)	< 10 µM
O=C(O)CCC(=O)N1CCN(c2nc(Nc3ccc4ncsc4c3)nc(N3CCc4ccccc4C3)n2)CC1	< 10 µM
COc1ccccc1CN1CCC(Nc2nc(Nc3cc(C(N)=O)ccc3C)nc(N(C)CC(C)C)n2)C1 (stereo not given)	< 1 µM
Cc1ccc(C(N)=O)cc1Nc1nc(N[C@H]2CCNC2)nc(N(C)CC(C)C(F)(F)F)n1 (stereo not given in full)	< 1 µM
Cc1ccc(C(N)=O)cc1Nc1nc(NC(C)C2CCCCC2)nc(N[C@H]2CCNC2)n1 (stereo not given in full)	< 1 µM
Cc1ccc(C(=O)NC(C)C)cc1Nc1nc(N[C@H]2CCNC2)nc(N(C)CC(C)(C)C)n1	< 1 µM
CNC(=O)CCC(=O)N1CCN(c2nc(NCC3CCC4CC3C4(C)C)nc(Nc3ccc4ncsc4c3)n2)CC1 (stereo not given)	< 10 µM

SMILES	IC50
Cc1ccc(C(=O)NC2CCCC2)cc1Nc1nc(N[C@H]2CCNC2)nc(N(C)CC(C)(C)C)n1	< 1 µM
Cc1ccc(C(N)=O)cc1Nc1nc(N[C@H]2CCN(Cc3ccccc3O)C2)nc(N(C)CC(C)C)n1	< 1 µM
CCOC(=O)N1CCN(c2nc(NC[C@@H]3CC[C@H]4C[C@@H]3C4(C)C)nc(Nc3ccc4ncsc4c3)n2)CC1	< 10 µM
Cc1cc2c(cc1Nc1nc(NCC(C)(C)C)nc(N[C@H]3CCNC3)n1)C(=O)NC2	< 1 µM
CC(=O)N1CCN(c2nc(NCC(C)c3ccccc3)nc(Nc3ccc4ncsc4c3)n2)CC1 (stereo not given)	< 10 µM
CC(CNc1cc(N2CCOCC2)nc(Nc2ccc3ncccc3c2)n1)c1ccccc1 (stereo not given)	< 10 µM
COC(=O)c1ccc(C)c(Nc2nc(N[C@H]3CCNC3)nc(N(C)CC(C)(C)C)n2)c1	< 1 µM
C[C@H](CNc1ncnc(Nc2ccc3ncsc3c2)n1)c1ccccc1	< 10 µM
COC1CCCC(C(=O)N(C)CCCN(C)c2nc(NCC(C)c3ccccc3)nc(Nc3ccc4ncsc4c3)n2)C1 (stereo not given)	< 10 µM
Cc1ccc(C(N)=O)cc1Nc1nc(NC2CCN(Cc3ccccc3)C2)nc(N(C)CC(C)(C)C)n1 (stereo not given)	< 1 µM
Cc1ccc(-c2ncc[nH]2)cc1Nc1nc(N[C@@H]2CCNC2)nc(N(C)CC(C)(C)C)n1	< 1 µM
CONC(=O)c1ccc(C)c(Nc2nc(N(C)CC(C)(C)C)nc(N3CCCNCC3)n2)c1	< 1 µM
Cc1ccc(C(N)=O)cc1Nc1nc(N[C@H]2CCNC2)nc(N(C)CC23CC4CC(CC(C4)C2)C3)n1	< 1 µM
CCOCNc1nc(NCC(C)c2ccccc2)nc(Nc2ccc3ncsc3c2)n1 (stereo not given)	< 10 µM
Cc1ccc2c(c1Nc1nc(NCC(C)(C)C)nc(N[C@H]3CCNC3)n1)CNC2=O	< 1 µM
CCC[C@@H]1C[C@@H](Nc2nc(Nc3cc(C(N)=O)ccc3C)nc(N(C)CC(C)(C)C)n2)CN1	< 1 µM
Cc1ccc(C(N)=O)cc1Nc1nc(N[C@H]2CCN(Cc3cccc(Cl)c3)C2)nc(N(C)CC(C)C)n1	< 1 µM
CCNC(=O)N1CCN(c2nc(NC[C@@H]3CC[C@H]4C[C@@H]3C4(C)C)nc(Nc3ccc4ncsc4c3)n2)CC1	< 10 µM
Cc1ccc(C(N)=O)cc1Nc1nc(NC2CCCc3ccccc32)nc(N[C@@H]2CCNC2)n1 (stereo not given in full)	< 1 µM
Cc1ccc(C(N)=O)cc1Nc1nc(N[C@H]2CCCNC2)nc(N(C)CC(C)(C)C)n1	< 1 µM
CNCCN(C)c1nc(NCC(C)c2ccccc2)nc(Nc2cccc(Br)c2)n1 (stereo not given)	< 10 µM
CC1(C)[C@H]2CCC(COc3nc(Cl)nc(Nc4ccc5ncsc5c4)n3)[C@@H]1C2 (stereo not given in full)	< 10 µM
Cc1ccc(C(N)=O)cc1Nc1nc(O)nc(N[C@H]2CCNC2)n1	< 1 µM

SMILES	IC50
Cc1ccc(C(N)=O)cc1Nc1nc(N[C@H]2CCN(Cc3cccc(F)c3)C2)nc(N(C)CC(C)C)n1	< 1 µM
CNC1CCN(c2cc(NCCOC(C)C)nc(-n3cnc4ccccc43)n2)C1 (stereo not given)	< 10 µM
Cc1ccc(C(N)=O)cc1Nc1nc(NC2CCS(=O)(=O)C2)nc(N(C)CC(C)(C)C)n1 (stereo not given)	< 1 µM
CCONC(=O)c1ccc(C)c(Nc2nc(N[C@H]3CCNC3)nc(N(C)CC(C)C)n2)c1	< 1 µM
Cc1ccc(CC2C[C@@H](Nc3nc(Nc4cc(C(N)=O)ccc4C)nc(N(C)CC(C)C)n3)CN2)cc1 (stereo not given in full)	< 1 µM
Cc1ccc(C(N)=O)cc1Nc1nc(NCC(C)(C)C)nc(N[C@@H]2CCNC2)n1	< 1 µM
Cc1ccc(C(N)=O)cc1Nc1nc(N[C@H]2CCN(Cc3ccncc3)C2)nc(N(C)CC(C)C)n1	< 1 µM
CC(=O)Nc1ccc(C)c(Nc2nc(N[C@H]3CCNC3)nc(N(C)CC(C)(C)C)n2)c1	< 1 µM
Cc1cccc(CN2CC[C@H](Nc3nc(Nc4cc(C(N)=O)ccc4C)nc(N(C)CC(C)C)n3)C2)n1	< 1 µM
Cc1ccc(C(N)=O)cc1Nc1cc(N(C)CC(C)C)nc(N[C@H]2CCNC2)n1	< 1 µM
Cc1ccc(C(N)=O)cc1Nc1nc(N[C@H]2CCN(C3CCC3)C2)nc(N(C)CC(C)(C)C)n1	< 1 µM
Cc1ccc(C(N)=O)cc1Oc1nc(NCc2ccccn2)nc(N(C)CC(C)(C)C)n1	< 30 µM
CNC(=O)c1ccc(C(F)(F)F)c(Nc2nc(N[C@H]3CCNC3)nc(N(C)CC(C)(C)C)n2)c1	< 1 µM
Cc1ccc(C(N)=O)cc1Nc1nc(N[C@H]2CCN(Cc3ccccn3)C2)nc(N(C)CC(C)C)n1	< 1 µM
CC(CNc1nc(Nc2ccc3ncsc3c2)nc(N2CCN(C(=O)C3CCOC3)CC2)n1)c1ccccc1 (stereo not given)	< 10 µM
Cc1ccc(C(N)=O)cc1Nc1nc(N[C@H]2CCN(Cc3ccc(F)cc3)C2)nc(N(C)CC(C)C)n1	< 1 µM
c1ccc(C2CCCN(c3nc(Nc4ccc5ncsc5c4)nc(N4CCNCC4)n3)C2)cc1 (stereo not given)	< 10 µM
Cc1ccc(C(N)=O)cc1Nc1nc(NCC2(c3ccccc3)CC2)nc(N[C@H]2CCNC2)n1	< 1 µM
Cn1ccc2cc(Nc3nc(Cl)nc(NC[C@@H]4CC[C@H]5C[C@@H]4C5(C)C)n3)ccc21	< 10 µM
C[C@H](CNc1nc(Nc2ccc3ncsc3c2)nc(N(C)CCN(C)C(=O)CCC(=O)O)n1)c1ccccc1	< 10 µM
CCNC(=O)c1ccc(C)c(Nc2nc(NC[C@H]3CCCN3)nc(N(C)CC(C)(C)C)n2)c1	< 1 µM
CC(CNc1nc(Nc2ccc3ncsc3c2)nc(N2CC3CC2CN3C(=O)c2ccco2)n1)c1ccccc1 (stereo not given)	< 10 µM
CNC(=O)c1ccc(C)c(Nc2nc(NC[C@H]3CCCN3)nc(N(C)CC(C)(C)C)n2)c1	< 1 µM

SMILES	IC50
Cc1ccc(C(=O)Nc2ccccc2)cc1Nc1nc(N[C@H]2CCNC2)nc(N(C)CC(C)C)n1	< 1 µM
CCN1C[C@@H](Nc2nc(Nc3cc(C(N)=O)ccc3C)nc(N(C)CC(C)(C)C)n2)C[C@H]1C	< 1 µM
Cc1ccc(C(N)=O)cc1Nc1nc(N[C@H]2CCNC2)nc(N(C)CC2CCCC2)n1	< 1 µM
CCONC(=O)c1ccc(C)c(Nc2nc(N(C)CC(C)(C)C)nc(N3CCCNCC3)n2)c1	< 1 µM
Cc1ccc(CN2CCC(Nc3nc(Nc4cc(C(N)=O)ccc4C)nc(N(C)CC(C)C)n3)C2)c(C)c1 (stereo not given)	< 1 µM
CNCCN(C)c1nc(NC[C@H](C)c2ccccc2)nc(Nc2ccc3ncsc3c2)n1	< 10 µM
Cc1ccc(CN2CC[C@H](Nc3nc(Nc4cc(C(N)=O)ccc4C)nc(N(C)CC(C)C)n3)C2)c(C)c1	< 1 µM
CONC(=O)c1ccc(C)c(Nc2nc(NCc3ccccn3)nc(N(C)CC(C)(C)C)n2)c1	< 1 µM
CN(CC1CCCCC1)c1nc(Nc2ccc3ncsc3c2)nc(N2CCNCC2)n1	< 10 µM
Cc1ccc(C(N)=O)cc1Nc1nc(N[C@H]2CCN(C(C)c3ccccn3)C2)nc(N(C)CC(C)C)n1 (stereo not given in full)	< 1 µM
CC(CNc1nc(Nc2ccc3ncsc3c2)nc(N2CC3CC2CN3C(=O)Cc2ccc(Cl)c(Cl)c2)n1)c1ccccc1 (stereo not given)	< 10 µM
CN(CC1CCC2CC1C2(C)C)c1nc(Nc2ccc3ncsc3c2)nc(N2CCN(C(=O)OC(C)(C)C)CC2)n1 (stereo not given)	< 10 µM
Cc1ccc(C(N)=O)cc1Nc1nc(NC2CCN(C(C)(C)C)C2)nc(N(C)CC(C)C)n1 (stereo not given)	< 1 µM
Cc1ccc(C(N)=O)cc1Nc1nc(NC2CCN(Cc3ccc(O)cc3)C2)nc(N(C)CC(C)C)n1 (stereo not given)	< 1 µM
CCNC(=O)N1CC2CC1CN2c1nc(NCC(C)c2ccccc2)nc(Nc2ccc3ncsc3c2)n1 (stereo not given)	< 10 µM
CC1(C)C2CCC(CNc3nc(Nc4ccc5[nH]nnc5c4)nc(N4CCNCC4)n3)C1C2 (stereo not given)	< 10 µM
Cc1ccc(C(N)=O)cc1Nc1nc(NCC(N)=O)nc(NCC(C)c2ccccc2)n1 (stereo not given)	< 1 µM
Cc1ccc(C(N)=O)cc1Nc1nc(N[C@H]2CCN(S(C)(=O)=O)C2)nc(N(C)CC(C)C)n1	< 1 µM
CONC(=O)c1ccc(C)c(Sc2nc(N(C)CC(C)(C)C)nc(N3CCCN(C)CC3)n2)c1	< 30 µM
COc1ncc(CN2CC[C@@H](Nc3nc(Nc4cc(C(N)=O)ccc4C)nc(N(C)CC(C)C)n3)C2)c(OC)n1	< 1 µM
CNC(=O)c1ccc(C)c(Nc2nc(NC3CNC3)nc(N(C)CC(C)(C)C)n2)c1	< 1 µM
